Measurements: US20060148752A1, “Method of treating soild tumors and leukemias using combination therapy of vitamin D and anti-metabolic nucleoside analogs” (priority 2004, published 2006)
Entries after “also recorded” stand apart in the source; their conditions may differ.

Experiments:
Format in all cases: cell-based, human
P-Akt = assay: Immunoblot of P-Akt expression in capan-1 cells; details: vehicle or 0.75 μM calcitriol 24 h, then varying concentrations of gemcitabine 24 h
Protocol: (§1) FIG. 4 is an immunoblot showing inhibition of survival signaling pathways in capan-1 by treatment with gemcitabine and 1,25D3. Capan-1 cells were treated 24 h with either vehicle or 0.75 μM calcitriol and then were treated with varying concentrations of gemcitabine for another 24 h. Cells were processed for immunoblotting to assess P-ErK1/2 and P-Akt expression. P-Erk1/2 was not affected by either agent alone or by the calcitriol/gemcitabine combination. […] For Western blot analysis, capan-1 cells were harvested and lysed in Triton-X100/SDS buffer as described previously ([…] et al., J. Biol. Chem. 276(33):30923-33 (2001), which is hereby incorporated by reference in its entirety). Proteins were transferred to PVDF membrane, and Western blots developed using Renaissance Enhanced Chemiluminescence Reagents (NEN Life Science Products, Boston, Mass.) or SuperSignal (Pierce, Rockford, Ill.).

P-Erk1/2 = assay: Immunoblot of P-Erk1/2 expression in capan-1 cells; details: vehicle or 0.75 μM calcitriol 24 h, then varying concentrations of gemcitabine 24 h
Protocol: as §1

caspase-8 = assay: Caspase-8 cleavage (Western blot) and activity (colorimetric assay) in capan-1 cells; details: vehicle or 0.75 μM calcitriol 24 h, then varying concentrations of gemcitabine
Protocol: (§2) FIG. 5 is a series of Western blots illustrating the effects of treatment with calcitriol and gemcitabine on caspase pathway induction in capan-1 cells. […] Cell lysates were prepared and analyzed by Western blot for caspase-3, caspase-6, caspase-8, and caspase-9. […] FIGS. 6A-D show quantitation of caspase-3, caspase-6, caspase-8, and caspase-9. Activity of caspase-3 (FIG. 6A), caspase-6 (FIG. 6B), caspase-8 (FIG. 6C), and caspase-9 (FIG. 6D) in capan-1 cells was measured by caspase-family colorimetric substrate assays, according to the manufacturer's protocol. Absorbance at 400 nm was determined, and the caspase activity was expressed as absorbance (ODU) per milligram of protein per reaction. […] Caspase activity was expressed as absorbance (O.D.) per milligram of protein per reaction. For Western blot analysis, capan-1 cells were harvested and lysed in Triton-X100/SDS buffer as described previously ([…] et al., J. Biol. Chem. 276(33):30923-33 (2001), which is hereby incorporated by reference in its entirety). Proteins were transferred to PVDF membrane, and Western blots developed using Renaissance Enhanced Chemiluminescence Reagents (NEN Life Science Products, Boston, Mass.) or SuperSignal (Pierce, Rockford, Ill.).

caspase-9 = assay: Caspase-9 cleavage (Western blot) and activity (colorimetric assay) in capan-1 cells; details: vehicle or 0.75 μM calcitriol 24 h, then varying concentrations of gemcitabine
Protocol: as §2

caspase-6 = assay: Caspase-6 cleavage (Western blot) and activity (colorimetric assay) in capan-1 cells; details: vehicle or 0.75 μM calcitriol 24 h, then varying concentrations of gemcitabine
Protocol: as §2

`Nc1ccn([C@@H]2O[C@H](CO)[C@@H](O)C2(F)F)c(=O)n1` [gemcitabine] was tested, and the P-Akt levels (P-Akt) was “little affected; also recorded: not affected”, the P-Erk1/2 expression (P-Erk1/2) was “not affected” and the caspase-8 cleavage/activation (caspase-8) was “increase in the cleaved, activated form”. For the same compound, the caspase-9 cleavage/activation (caspase-9) was “no significant change; also recorded: modestly increased”.
For `C=C1/C(=C\C=C2/CCC[C@]3(C)[C@@H]([C@H](C)CCCC(C)(C)O)CC[C@@H]23)C[C@@H](O)C[C@@H]1O` [calcitriol, 1,25-dihydroxycholecalciferol], the P-Akt levels (P-Akt) was “modestly reduced”, the P-Erk1/2 expression (P-Erk1/2) was “not affected” and the caspase-8 cleavage/activation (caspase-8) was “not cleaved at detectable levels; also recorded: no change”. For the same compound, the caspase-9 cleavage/activation (caspase-9) was “not cleaved at detectable levels; also recorded: modestly increased” and the caspase-6 cleavage/activation (caspase-6) was “not cleaved at detectable levels”.
